Experimental data as given in paper PMC8582737 (International Journal of Molecular Sciences, 2021).
In brackets after ≈: the same amount, converted by molar mass.

Tests used:
[1] = Solubility of KTZ, shake-flask method; type: physicochemical; details: for solubility at 24 h: 25 °C; for Improvement of KTZ solubility by TTO: 5% TTO
Description: Mixtures were mechanically shaken for 24 h at 25 °C ± 0.5 °C and allowed to stand for 24 h to attain equilibrium. Then, the samples were centrifuged at 4000 rpm for 15 min, followed by filtration through a CA membrane filter (0.45 μm), diluted appropriately with methanol, and analyzed by the HPLC method at 231 nm against a standard.

[2] = cited from earlier work

Work on `CC(=O)N1CCN(c2ccc(OCC3COC(Cn4ccnc4)(c4ccc(Cl)cc4Cl)O3)cc2)CC1` (centres unmarked) [KTZ, Ketoconazole] yielded a solubility at 24 h ([1]; Castor oil) of 93.5 ± 8.39 µg/mL (≈ 176 µM), a solubility at 24 h ([1]; Isopropyl myristate) of 94 ± 3.26 µg/mL (≈ 177 µM) and a solubility at 24 h ([1]; Paraffin oil) of 17 ± 2.84 µg/mL (≈ 32 µM). The solubility at 24 h ([1]; Water) was 9.56 ± 0.09 µg/mL (≈ 18 µM), the solubility at 24 h ([1]; castor oil with 5% TTO, oil or lipid, thermodynamic from solid, Castor oil + TTO 5%) was 155 ± 7.94 µg/mL and the “Improvement of KTZ solubility by TTO” value ([1]; castor oil) was “about 2 fold”. The solubility at 24 h ([1]; isopropyl myristate with 5% TTO, oil or lipid, thermodynamic from solid, Isopropyl myristate + TTO 5%) was 131 ± 5.13 µg/mL, the “Improvement of KTZ solubility by TTO” value ([1]; isopropyl myristate) was “about 2 fold” and the solubility at 24 h ([1]; paraffin oil with 5% TTO, Paraffin oil + TTO 5%) was 80.1 ± 6.5 µg/mL. The “Improvement of KTZ solubility by TTO” value ([1]; paraffin oil) was 5 fold, the solubility at 24 h ([1]; water with 5% TTO, aqueous with cosolvent or surfactant or cyclodextrin, thermodynamic from solid, Water + TTO 5%) was 35.7 ± 4.59 µg/mL and the “Improvement of KTZ solubility by TTO” value ([1]; water) was ~4 fold. The Solubility in water [2] was 0.0866 to 40.0 µg/mL and the “pH of highest stability” value [2] was 6–8.
